Experimental data published in paper PMC4850295, “Using a Genetically Encoded Sensor to Identify Inhibitors of Toxoplasma gondii Ca^2+ Signaling” (The Journal of Biological Chemistry, 2016).

system: T1, GCaMP5-expressing T. gondii; parameters: species or system GCaMP5-expressing Toxoplasma gondii, extracellular; GCaMP5 fluorescence (cytosolic Ca2+) after 100 uM zaprinast in compound-pretreated extracellular parasites, background-subtracted, relative to zaprinast alone; conditions: 100 uM zaprinast stimulation; 10 min pretreatment; mean of two replicates; 0.23 h
T1 construct: whole extracellular parasites expressing GCaMP5 Ca2+ sensor
Protocol: GCaMP5-expressing parasites were suspended in Ringer's solution at 4 × 10^7 parasites/ml, and 50 μl of parasites were applied to each well of a 96-well plate (Costar, catalog no. 3631). […] Parasites were then treated with 100 μM zaprinast or 0.1% DMSO as a vehicle control and incubated at 37 °C with 5% CO2 for an additional 4 min before measuring fluorescence with excitation and emission wavelengths of 485 and 525 nm, respectively, on a SpectraMax M3 (Molecular Devices). Basal fluorescence, measured from untreated parasites, was subtracted from all values, and results were expressed as -fold change from parasites treated only with zaprinast. Z′ factors were determined from (i) parasites treated with zaprinast versus untreated parasites and (ii) parasites treated with a final concentration of 1 μM Cpd2 or a vehicle control followed by zaprinast, using the formula, Z′ = 1 − 3(σp + σn)/(|μp − μn|), where σp and σn indicate S.D. values of positive and negative controls, and μp and μn indicate the means of positive and negative controls, respectively. […] We predicted that the zaprinast response measured in GCaMP5-expressing parasites could form the basis for a phenotypic screen. Such a screen would benefit from the known importance of Ca^2+ signaling in parasite biology along with the reported success rate of cell-based phenotypic assays. We designed a screen wherein extracellular GCaMP5-expressing parasites were pretreated with compounds for 10 min before stimulation with zaprinast, and parasite fluorescence was measured 4 min later. We expected that compounds that interfered with the zaprinast response would reduce fluorescence. We calculated a Z′-factor for this screen to determine its dynamic range and suitability to high throughput screening. To do so, we compared zaprinast-treated parasites to untreated parasites or those pretreated with the PKG inhibitor Compound 2 (Cpd2) ([55]). […] We obtained the compound libraries published kinase inhibitor sets PKIS1 ([57]) and PKIS2 (unpublished), from GlaxoSmithKline and applied our phenotypic screen to the 823 ATP mimetics represented in these collections (Fig. 2B and supplemental Table S1). The compounds were screened at a single 10 μM dose with two biological replicates.

First: NS(=O)(=O)c1cccc(-c2cc3ccncc3cc2OCc2ccccc2)c1 [GSK980961A]
Second: NCC(NC(=O)c1cc(-c2cccnc2)c(-c2ccnc3[nH]ccc23)s1)c1ccccc1 (stereo not shown) [GSK1323434A]
The “fold change in fluorescence relative to zaprinast alone” value of the first is lower: 0.9595 for the first, 0.997 for the second.

First: Cc1cccc(Nc2nc(N[C@H]3CCCC[C@H]3N)ncc2C(N)=O)c1 [GSK986310C]
Second: Cc1cccc(Nc2nc(NCCN)ncc2C(N)=O)c1 [GSK1292139B]
The “fold change in fluorescence relative to zaprinast alone” value of the first is higher: 1.388 for the first, 0.903 for the second.

Going from `CS(=O)(=O)Nc1ccc(-c2ccnc3[nH]ccc23)cc1` [GSK993273A] to `NCC(NC(=O)c1cc(-c2ccnc3[nH]ccc23)cs1)c1ccccc1` (stereo not shown) [GSK1229959A], the “fold change in fluorescence relative to zaprinast alone” value falls from 1.181 to 0.7412.

Compared with `CCCN1CCC=C(c2ccc(Nc3nc(Nc4ccccc4C(N)=O)c4cc[nH]c4n3)c(C)c2)C1` [GSK994854A], `CCCN1CCCC(c2ccc(Nc3nc(Nc4cc(F)ccc4C(N)=O)c4cc[nH]c4n3)c(OC)c2)C1` (stereo not shown) [GSK1173862A] is higher in “fold change in fluorescence relative to zaprinast alone” value: 1.737 for the first, 1.98 for the second.

First: CCn1c(-c2nonc2N)nc2c(C#CC(C)(C)O)nc(CN3CCCC3)cc21 [GSK1000163A]
Second: CCn1c(-c2nonc2N)nc2c(C#CC(C)(C)O)nc(O[C@@H](CN)c3ccccc3)cc21 [GSK1007102B]
The “fold change in fluorescence relative to zaprinast alone” value of the first is lower: 1.153 for the first, 1.188 for the second.

Compared with `Cc1ccc(NC(=O)Nc2cc(C(C)(C)C)nn2-c2ccccc2)cc1` [GSK1014915A], `COc1ccc(Nc2nccc(N3CCC(NC(=O)Nc4cc(C)ccc4C)C3)n2)cc1` (stereo not shown) [GSK1379741A] is higher in “fold change in fluorescence relative to zaprinast alone” value: 0.9452 for the first, 1.033 for the second.

First: NC(=O)c1sc(-n2cnc3ccccc32)cc1OCc1ccccc1Br [GSK1023156A]
Second: COc1cc2ncn(-c3cc(OCc4ccccc4C(F)(F)F)c(C(C)=O)s3)c2cc1OC [GSK1030059A]
The “fold change in fluorescence relative to zaprinast alone” value of the first is lower: 0.8843 for the first, 1.158 for the second.

First: COC(=O)c1sc(-n2cnc3cc(OC)c(OC)cc32)cc1OCc1ccccc1C(F)(F)F [GSK1030058A]
Second: CNC(=O)c1sc(-n2cnc3cc(OC)c(OC)cc32)cc1OCc1ccccc1C(F)(F)F [GSK1030061A]
The “fold change in fluorescence relative to zaprinast alone” value of the first is lower: 0.7743 for the first, 1.028 for the second.

Going from `COc1cc2ncn(-c3cc(OCc4ccccc4C(F)(F)F)c(C(=O)N(C)C)s3)c2cc1OC` [GSK1030062A] to `COc1cc(Nc2nccc(N3CCC(NC(=O)c4cc5ccccc5s4)C3)n2)cc(OC)c1OC` (stereo not shown) [GSK1379760A], the “fold change in fluorescence relative to zaprinast alone” value rises from 0.999 to 1.279.

First: O=c1[nH]cc(-c2ccc(O)cc2)c2sc(-c3ccncc3)cc12 [GSK1033723A]
Second: NC(CNC(=O)c1cc(Br)c(-c2ccnc3[nH]ccc23)s1)c1ccccc1 (stereo not shown) [GSK1322949A]
The “fold change in fluorescence relative to zaprinast alone” value of the first is higher: 1.385 for the first, 0.4024 for the second.

Going from `Nc1nccc(-c2ccc3c(N)n[nH]c3c2)n1` [GSK1034945A] to `COc1ccc(Nc2nccc(-c3ccc(NC(=O)c4cc5cc(F)ccc5[nH]4)cc3)n2)cc1` [GSK1229496A], the “fold change in fluorescence relative to zaprinast alone” value rises from 1.107 to 1.727.

Compared with `COc1cc(N2CCN(C(C)C)CC2)ccc1Nc1nc(Nc2ccc(F)cc2C(N)=O)c2cc[nH]c2n1` [GSK1220512A], `CCCN1CCC(c2ccc(Nc3nc(Nc4cc(F)ccc4C(N)=O)c4cc[nH]c4n3)c(OC)c2)CC1` [GSK1326255A] is higher in “fold change in fluorescence relative to zaprinast alone” value: 1.812 for the first, 1.826 for the second.

Compared with `NCC(C(=O)Nc1cc(Br)c(-c2ccnc3[nH]ccc23)s1)c1ccccc1` (stereo not shown) [GSK1269851A], `NCCC(NC(=O)c1cc(Br)c(-c2ccnc3[nH]ccc23)s1)c1ccccc1` (stereo not shown) [GSK1307810A] is higher in “fold change in fluorescence relative to zaprinast alone” value: 0.2436 for the first, 0.5195 for the second.

Compared with `NCCCC(NC(=O)c1cc(Br)c(-c2ccnc3[nH]ccc23)s1)c1ccccc1` (stereo not shown) [GSK1287544A], `NCC(NC(=O)c1cc(-c2cn[nH]c2)c(-c2ccnc3[nH]ccc23)s1)c1ccccc1` (stereo not shown) [GSK1325775A] is higher in “fold change in fluorescence relative to zaprinast alone” value: 0.7469 for the first, 1.276 for the second.

Going from `NCC(NCc1ccc(-c2ccnc3[nH]ccc23)s1)c1ccccc1` (stereo not shown) [GSK1321565A] to `O=C(NC1CCN(c2ccnc(Nc3ccc(F)cc3)n2)C1)c1cc2ccccc2s1` (stereo not shown) [GSK1379716A], the “fold change in fluorescence relative to zaprinast alone” value rises from 0.4604 to 1.103.

First: O=C(Nc1c(F)cccc1F)c1cc(C(=O)c2ccccc2F)c[nH]1 [GSK1326180A]
Second: O=C(Nc1ccccc1F)NC1CCN(c2ccnc(Nc3ccc(F)cc3)n2)C1 (stereo not shown) [GSK1379722A]
The “fold change in fluorescence relative to zaprinast alone” value of the first is higher: 0.8808 for the first, 0.7204 for the second.

First: COc1ccc(CNC(=O)NC2CCN(c3ccnc(Nc4ccc(F)cc4)n3)C2)cc1 (stereo not shown) [GSK1379706A]
Second: COc1ccc(CNC(=O)NC2CCN(c3ccnc(Nc4ccc(OC)cc4)n3)C2)cc1 (stereo not shown) [GSK1379727A]
The “fold change in fluorescence relative to zaprinast alone” value of the first is lower: 0.6471 for the first, 1.253 for the second.

Compared with `N#Cc1cccc(C(=O)NC2CCN(c3ccnc(Nc4ccc(F)cc4)n3)C2)c1` (stereo not shown) [GSK1379708A], `COc1ccc(Nc2nccc(N3CCC(NC(=O)c4cccc(C#N)c4)C3)n2)cc1` (stereo not shown) [GSK1379730A] is lower in “fold change in fluorescence relative to zaprinast alone” value: 1.095 for the first, 0.96 for the second.

Going from `CC(C(=O)NC1CCN(c2ccnc(Nc3ccc(F)cc3)n2)C1)c1ccc(Cl)cc1` (stereo not shown) [GSK1379713A] to `COc1ccc(Nc2nccc(N3CCC(NC(=O)C(C)c4ccc(Cl)cc4)C3)n2)cc1` (stereo not shown) [GSK1379735A], the “fold change in fluorescence relative to zaprinast alone” value falls from 0.7096 to 0.6825.

First: COC(=O)C(Cc1ccccc1)NC(=O)NC1CCN(c2ccnc(Nc3ccc(F)cc3)n2)C1 (stereo not shown) [GSK1379714A]
Second: COC(=O)c1cccc(NC(=O)NC2CCN(c3ccnc(Nc4ccc(F)cc4)n3)C2)c1 (stereo not shown) [GSK1379725A]
The “fold change in fluorescence relative to zaprinast alone” value of the first is higher: 0.7659 for the first, 0.2001 for the second.

Going from `CCCc1ccc(S(=O)(=O)NC2CCN(c3ccnc(Nc4ccc(F)cc4)n3)C2)cc1` (stereo not shown) [GSK1379715A] to `CCCc1ccc(S(=O)(=O)NC2CCN(c3ccnc(Nc4ccc(OC)cc4)n3)C2)cc1` (stereo not shown) [GSK1379737A], the “fold change in fluorescence relative to zaprinast alone” value rises from 0.5743 to 0.6293.

Compared with `Cn1cncc1C(=O)NC1CCN(c2ccnc(Nc3ccc(F)cc3)n2)C1` (stereo not shown) [GSK1379717A], `Cc1ccc(C)c(NC(=O)NC2CCN(c3ccnc(Nc4ccc(F)cc4)n3)C2)c1` (stereo not shown) [GSK1379720A] is higher in “fold change in fluorescence relative to zaprinast alone” value: 1.089 for the first, 1.268 for the second.

Going from `COc1cccc(NC(=O)NC2CCN(c3ccnc(Nc4ccc(F)cc4)n3)C2)c1` (stereo not shown) [GSK1379721A] to `COc1ccc(Nc2nccc(N3CCC(NC(=O)Nc4cccc(OC)c4)C3)n2)cc1` (stereo not shown) [GSK1379742A], the “fold change in fluorescence relative to zaprinast alone” value rises from 0.358 to 1.221.

Going from `COc1cccc(CNC(=O)NC2CCN(c3ccnc(Nc4ccc(F)cc4)n3)C2)c1` (stereo not shown) [GSK1379723A] to `COc1ccc(Nc2nccc(N3CCC(NC(=O)Nc4cccc(C(C)=O)c4)C3)n2)cc1` (stereo not shown) [GSK1379731A], the “fold change in fluorescence relative to zaprinast alone” value rises from 0.5252 to 0.6491.

Compared with `O=C(Nc1ccc2c(c1)OCO2)NC1CCN(c2ccnc(Nc3ccc(F)cc3)n2)C1` (stereo not shown) [GSK1379724A], `COc1ccc(Nc2nccc(N3CCC(NC(=O)Nc4ccc5c(c4)OCO5)C3)n2)cc1` (stereo not shown) [GSK1379745A] is higher in “fold change in fluorescence relative to zaprinast alone” value: 0.9401 for the first, 1.223 for the second.

Compared with `COc1ccc(Nc2nccc(N3CCC(NS(=O)(=O)c4ccc(NC(C)=O)cc4)C3)n2)cc1` (stereo not shown) [GSK1379729A], `COc1ccc(Nc2nccc(N3CCC(NC(=O)c4cccc(NC(C)=O)c4)C3)n2)cc1` (stereo not shown) [GSK1379732A] is lower in “fold change in fluorescence relative to zaprinast alone” value: 1.531 for the first, 1.077 for the second.

Compared with `COc1ccc(Nc2nccc(N3CCC(NC(=O)c4cc5ccccc5s4)C3)n2)cc1` (stereo not shown) [GSK1379738A], `COC(=O)c1cccc(NC(=O)NC2CCN(c3ccnc(Nc4ccc(OC)cc4)n3)C2)c1` (stereo not shown) [GSK1379746A] is higher in “fold change in fluorescence relative to zaprinast alone” value: 0.9419 for the first, 1.123 for the second.

First: COc1cc(Nc2nccc(N3CCC(NC(=O)c4cccc(C#N)c4)C3)n2)cc(OC)c1OC (stereo not shown) [GSK1379751A]
Second: COc1cc(Nc2nccc(N3CCC(NC(=O)c4cccc(NC(C)=O)c4)C3)n2)cc(OC)c1OC (stereo not shown) [GSK1379754A]
The “fold change in fluorescence relative to zaprinast alone” value of the first is higher: 1.563 for the first, 1.271 for the second.

First: COc1cc(Nc2nccc(N3CCC(NC(=O)Nc4cccc(C(C)=O)c4)C3)n2)cc(OC)c1OC (stereo not shown) [GSK1379753A]
Second: COc1cccc(NC(=O)NC2CCN(c3ccnc(Nc4cc(OC)c(OC)c(OC)c4)n3)C2)c1 (stereo not shown) [GSK1379763A]
The “fold change in fluorescence relative to zaprinast alone” value of the first is higher: 1.391 for the first, 1.269 for the second.
